Experimental data published in ChEMBL document CHEMBL5291721, “A preclinical secondary pharmacology resource illuminates target-adverse drug reaction associations of marketed drugs” (Nat Commun, 2023).
Blank lines part the entries; values can stand above or below the molecule they belong to.

What was measured:
Acetylcholinesterase = Acetylcholinesterase (Homo sapiens, UniProt P22303); format: functional
[1] = molecular target: T1, Alpha-1A adrenergic receptor (Homo sapiens, UniProt P35348); format: functional, cell-based
T1 sequence (P35348 whole entry): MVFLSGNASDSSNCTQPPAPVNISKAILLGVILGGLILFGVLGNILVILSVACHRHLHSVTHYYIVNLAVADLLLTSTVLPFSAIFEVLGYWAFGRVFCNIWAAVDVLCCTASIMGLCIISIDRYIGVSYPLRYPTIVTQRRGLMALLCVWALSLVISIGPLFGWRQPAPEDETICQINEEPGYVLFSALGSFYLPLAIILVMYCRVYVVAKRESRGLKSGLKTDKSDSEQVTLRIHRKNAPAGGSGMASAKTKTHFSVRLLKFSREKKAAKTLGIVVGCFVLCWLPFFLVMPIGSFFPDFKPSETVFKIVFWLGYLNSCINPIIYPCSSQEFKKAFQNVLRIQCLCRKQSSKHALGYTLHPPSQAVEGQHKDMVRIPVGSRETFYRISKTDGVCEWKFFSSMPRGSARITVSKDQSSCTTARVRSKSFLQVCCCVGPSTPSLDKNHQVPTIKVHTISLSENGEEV

[2] = molecular target: T1, Alpha-1A adrenergic receptor; format: functional, cell-based; remark: listed apart in the source
[3] = molecular target: T2, Alpha-2A adrenergic receptor (Homo sapiens, UniProt P08913)
T2 sequence (P08913 whole entry): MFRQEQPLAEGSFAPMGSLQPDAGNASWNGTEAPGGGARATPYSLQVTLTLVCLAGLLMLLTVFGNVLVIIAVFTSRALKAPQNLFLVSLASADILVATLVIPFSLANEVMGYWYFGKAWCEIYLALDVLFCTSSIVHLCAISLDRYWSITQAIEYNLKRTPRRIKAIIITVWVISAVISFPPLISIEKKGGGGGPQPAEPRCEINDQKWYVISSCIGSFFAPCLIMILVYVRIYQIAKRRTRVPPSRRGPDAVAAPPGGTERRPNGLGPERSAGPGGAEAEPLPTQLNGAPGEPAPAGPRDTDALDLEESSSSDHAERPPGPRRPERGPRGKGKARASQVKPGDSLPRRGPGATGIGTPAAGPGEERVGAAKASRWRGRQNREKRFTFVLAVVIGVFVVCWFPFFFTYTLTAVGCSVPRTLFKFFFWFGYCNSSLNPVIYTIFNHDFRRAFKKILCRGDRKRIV

Androgen receptor = molecular target: T3, Androgen receptor (Homo sapiens, UniProt P10275)
T3 sequence (P10275 whole entry): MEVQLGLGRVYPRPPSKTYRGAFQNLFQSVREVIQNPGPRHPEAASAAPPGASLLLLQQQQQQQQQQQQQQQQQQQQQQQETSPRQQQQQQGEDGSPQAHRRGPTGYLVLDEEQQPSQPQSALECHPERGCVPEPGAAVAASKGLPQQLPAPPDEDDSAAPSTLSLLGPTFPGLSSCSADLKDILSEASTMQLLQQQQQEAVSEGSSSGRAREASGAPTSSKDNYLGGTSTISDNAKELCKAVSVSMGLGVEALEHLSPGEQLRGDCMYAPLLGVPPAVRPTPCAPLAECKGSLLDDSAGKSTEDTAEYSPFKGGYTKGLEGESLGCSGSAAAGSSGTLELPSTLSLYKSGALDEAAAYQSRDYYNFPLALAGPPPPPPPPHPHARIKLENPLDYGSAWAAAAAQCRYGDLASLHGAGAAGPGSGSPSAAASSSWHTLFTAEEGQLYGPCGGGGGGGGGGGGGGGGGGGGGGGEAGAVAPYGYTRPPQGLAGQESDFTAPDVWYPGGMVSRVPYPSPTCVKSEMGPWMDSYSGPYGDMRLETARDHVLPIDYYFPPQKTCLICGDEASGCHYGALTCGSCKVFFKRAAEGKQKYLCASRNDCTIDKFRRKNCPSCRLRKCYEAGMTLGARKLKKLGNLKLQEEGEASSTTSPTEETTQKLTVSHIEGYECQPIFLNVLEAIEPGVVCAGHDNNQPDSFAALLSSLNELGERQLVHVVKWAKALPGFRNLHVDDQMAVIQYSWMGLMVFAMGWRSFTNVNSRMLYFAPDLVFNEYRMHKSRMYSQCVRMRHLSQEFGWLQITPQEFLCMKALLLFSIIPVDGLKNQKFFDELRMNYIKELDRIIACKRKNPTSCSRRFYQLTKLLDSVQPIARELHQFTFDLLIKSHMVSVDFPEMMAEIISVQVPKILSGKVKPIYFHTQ

[4] = molecular target: Voltage-dependent L-type calcium channel subunit alpha-1C (Homo sapiens, UniProt Q13936); format: functional, cell-based
Histamine H3 receptor = Histamine H3 receptor (Homo sapiens, UniProt Q9Y5N1)
[5] = molecular target: T4, Amine oxidase [flavin-containing] A (Homo sapiens, UniProt P21397); format: functional
T4 sequence (P21397 whole entry): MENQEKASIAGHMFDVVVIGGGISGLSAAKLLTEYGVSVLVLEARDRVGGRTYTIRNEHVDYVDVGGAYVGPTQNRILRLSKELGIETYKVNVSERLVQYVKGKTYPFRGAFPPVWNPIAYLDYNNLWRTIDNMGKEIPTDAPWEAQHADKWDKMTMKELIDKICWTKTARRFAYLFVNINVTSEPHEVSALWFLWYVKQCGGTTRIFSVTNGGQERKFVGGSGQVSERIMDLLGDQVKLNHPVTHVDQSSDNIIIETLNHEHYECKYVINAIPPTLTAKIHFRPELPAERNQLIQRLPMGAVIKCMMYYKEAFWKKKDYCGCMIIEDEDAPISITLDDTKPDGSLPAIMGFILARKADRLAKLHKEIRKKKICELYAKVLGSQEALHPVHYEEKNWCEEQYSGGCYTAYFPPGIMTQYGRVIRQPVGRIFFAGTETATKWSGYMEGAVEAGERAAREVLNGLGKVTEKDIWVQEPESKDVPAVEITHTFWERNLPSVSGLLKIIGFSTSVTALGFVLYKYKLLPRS

Thromboxane A2 receptor = molecular target: T5, Thromboxane A2 receptor (Homo sapiens, UniProt P21731); format: functional, cell-based
T5 sequence (P21731 whole entry): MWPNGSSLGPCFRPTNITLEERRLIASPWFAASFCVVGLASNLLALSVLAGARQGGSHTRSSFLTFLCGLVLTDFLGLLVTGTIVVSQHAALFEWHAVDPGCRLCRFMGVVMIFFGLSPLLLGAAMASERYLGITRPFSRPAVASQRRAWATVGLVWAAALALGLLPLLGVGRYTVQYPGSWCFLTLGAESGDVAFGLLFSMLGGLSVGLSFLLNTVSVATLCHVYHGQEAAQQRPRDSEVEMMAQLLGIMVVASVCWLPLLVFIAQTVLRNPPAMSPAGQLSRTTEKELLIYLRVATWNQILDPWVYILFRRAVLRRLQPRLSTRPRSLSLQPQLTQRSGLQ

[6] = molecular target: T1, Alpha-1A adrenergic receptor
[7] = molecular target: Beta-1 adrenergic receptor (Homo sapiens, UniProt P08588); format: functional
[8] = molecular target: Beta-2 adrenergic receptor (Homo sapiens, UniProt P07550)
[9] = molecular target: Voltage-dependent L-type calcium channel subunit alpha-1C (Rattus norvegicus, UniProt P22002); format: functional
[10] = molecular target: Glutamate receptor ionotropic, NMDA 1 (Rattus norvegicus, UniProt P35439)
[11] = molecular target: Neuronal acetylcholine receptor subunit alpha-4 (Homo sapiens, UniProt P43681)
[12] = molecular target: T6, Gamma-aminobutyric acid receptor subunit alpha-1 (Rattus norvegicus, UniProt P62813)
[13] = molecular target: T6, Gamma-aminobutyric acid receptor subunit alpha-1; format: functional
[14] = molecular target: Voltage-gated inwardly rectifying potassium channel KCNH2 (Homo sapiens, UniProt Q12809); format: functional
[15] = molecular target: Delta-type opioid receptor (Homo sapiens, UniProt P41143)
[16] = molecular target: Kappa-type opioid receptor (Homo sapiens, UniProt P41145)
Mu-type opioid receptor [17] = molecular target: T7, Mu-type opioid receptor (Homo sapiens, UniProt P35372); experiment: biochemical; format: functional
[18] = molecular target: Sodium-dependent noradrenaline transporter (Homo sapiens, UniProt P23975)
Mu-type opioid receptor [19] = molecular target: T7, Mu-type opioid receptor
[20] = molecular target: Epidermal growth factor receptor (Homo sapiens, UniProt P00533); format: functional
[21] = molecular target: Growth hormone secretagogue receptor type 1 (Homo sapiens, UniProt Q92847)
Further: assay procedure not described here.

Acetylcholinesterase, sequence (P22303 whole entry): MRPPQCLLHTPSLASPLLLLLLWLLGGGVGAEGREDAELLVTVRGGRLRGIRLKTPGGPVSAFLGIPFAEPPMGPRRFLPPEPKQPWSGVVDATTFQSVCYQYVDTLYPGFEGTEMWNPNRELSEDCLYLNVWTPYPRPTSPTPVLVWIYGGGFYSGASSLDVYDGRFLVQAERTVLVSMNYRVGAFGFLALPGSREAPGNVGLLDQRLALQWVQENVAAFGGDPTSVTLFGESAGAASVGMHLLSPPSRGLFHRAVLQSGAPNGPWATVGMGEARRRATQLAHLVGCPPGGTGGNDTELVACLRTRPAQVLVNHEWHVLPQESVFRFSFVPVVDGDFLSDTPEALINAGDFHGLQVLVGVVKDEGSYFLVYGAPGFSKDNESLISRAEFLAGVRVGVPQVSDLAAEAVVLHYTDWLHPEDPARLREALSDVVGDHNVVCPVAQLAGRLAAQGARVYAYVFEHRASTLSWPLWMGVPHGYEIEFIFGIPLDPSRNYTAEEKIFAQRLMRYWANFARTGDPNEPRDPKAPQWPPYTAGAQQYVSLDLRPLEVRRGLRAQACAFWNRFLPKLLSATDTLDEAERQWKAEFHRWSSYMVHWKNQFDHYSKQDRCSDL
T6 sequence (P62813 whole entry): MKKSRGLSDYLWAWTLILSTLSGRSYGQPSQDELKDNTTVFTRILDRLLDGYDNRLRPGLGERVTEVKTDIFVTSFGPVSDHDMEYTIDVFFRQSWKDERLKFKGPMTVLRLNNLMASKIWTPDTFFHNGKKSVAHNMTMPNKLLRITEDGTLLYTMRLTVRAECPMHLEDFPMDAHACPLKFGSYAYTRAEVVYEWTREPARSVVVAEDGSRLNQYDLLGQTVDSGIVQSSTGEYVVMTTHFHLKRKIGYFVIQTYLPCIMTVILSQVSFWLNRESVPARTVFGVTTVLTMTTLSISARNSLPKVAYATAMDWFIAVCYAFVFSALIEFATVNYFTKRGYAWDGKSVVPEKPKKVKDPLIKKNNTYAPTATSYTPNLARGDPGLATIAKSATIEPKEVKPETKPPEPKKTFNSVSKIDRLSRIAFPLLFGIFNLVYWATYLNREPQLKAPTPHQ
T7 sequence (P35372 whole entry): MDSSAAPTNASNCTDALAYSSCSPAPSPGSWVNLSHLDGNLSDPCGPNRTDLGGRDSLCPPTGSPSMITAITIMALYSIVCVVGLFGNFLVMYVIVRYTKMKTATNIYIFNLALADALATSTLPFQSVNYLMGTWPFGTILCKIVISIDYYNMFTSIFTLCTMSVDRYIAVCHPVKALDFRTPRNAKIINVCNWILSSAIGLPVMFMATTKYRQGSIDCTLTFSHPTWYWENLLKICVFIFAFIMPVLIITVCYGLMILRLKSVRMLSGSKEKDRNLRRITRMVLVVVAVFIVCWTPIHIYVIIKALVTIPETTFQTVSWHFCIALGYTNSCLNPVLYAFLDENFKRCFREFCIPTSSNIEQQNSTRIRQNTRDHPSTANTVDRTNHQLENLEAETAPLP
Voltage-dependent L-type calcium channel subunit alpha-1C (Rattus norvegicus, UniProt P22002), sequence (P22002 whole entry): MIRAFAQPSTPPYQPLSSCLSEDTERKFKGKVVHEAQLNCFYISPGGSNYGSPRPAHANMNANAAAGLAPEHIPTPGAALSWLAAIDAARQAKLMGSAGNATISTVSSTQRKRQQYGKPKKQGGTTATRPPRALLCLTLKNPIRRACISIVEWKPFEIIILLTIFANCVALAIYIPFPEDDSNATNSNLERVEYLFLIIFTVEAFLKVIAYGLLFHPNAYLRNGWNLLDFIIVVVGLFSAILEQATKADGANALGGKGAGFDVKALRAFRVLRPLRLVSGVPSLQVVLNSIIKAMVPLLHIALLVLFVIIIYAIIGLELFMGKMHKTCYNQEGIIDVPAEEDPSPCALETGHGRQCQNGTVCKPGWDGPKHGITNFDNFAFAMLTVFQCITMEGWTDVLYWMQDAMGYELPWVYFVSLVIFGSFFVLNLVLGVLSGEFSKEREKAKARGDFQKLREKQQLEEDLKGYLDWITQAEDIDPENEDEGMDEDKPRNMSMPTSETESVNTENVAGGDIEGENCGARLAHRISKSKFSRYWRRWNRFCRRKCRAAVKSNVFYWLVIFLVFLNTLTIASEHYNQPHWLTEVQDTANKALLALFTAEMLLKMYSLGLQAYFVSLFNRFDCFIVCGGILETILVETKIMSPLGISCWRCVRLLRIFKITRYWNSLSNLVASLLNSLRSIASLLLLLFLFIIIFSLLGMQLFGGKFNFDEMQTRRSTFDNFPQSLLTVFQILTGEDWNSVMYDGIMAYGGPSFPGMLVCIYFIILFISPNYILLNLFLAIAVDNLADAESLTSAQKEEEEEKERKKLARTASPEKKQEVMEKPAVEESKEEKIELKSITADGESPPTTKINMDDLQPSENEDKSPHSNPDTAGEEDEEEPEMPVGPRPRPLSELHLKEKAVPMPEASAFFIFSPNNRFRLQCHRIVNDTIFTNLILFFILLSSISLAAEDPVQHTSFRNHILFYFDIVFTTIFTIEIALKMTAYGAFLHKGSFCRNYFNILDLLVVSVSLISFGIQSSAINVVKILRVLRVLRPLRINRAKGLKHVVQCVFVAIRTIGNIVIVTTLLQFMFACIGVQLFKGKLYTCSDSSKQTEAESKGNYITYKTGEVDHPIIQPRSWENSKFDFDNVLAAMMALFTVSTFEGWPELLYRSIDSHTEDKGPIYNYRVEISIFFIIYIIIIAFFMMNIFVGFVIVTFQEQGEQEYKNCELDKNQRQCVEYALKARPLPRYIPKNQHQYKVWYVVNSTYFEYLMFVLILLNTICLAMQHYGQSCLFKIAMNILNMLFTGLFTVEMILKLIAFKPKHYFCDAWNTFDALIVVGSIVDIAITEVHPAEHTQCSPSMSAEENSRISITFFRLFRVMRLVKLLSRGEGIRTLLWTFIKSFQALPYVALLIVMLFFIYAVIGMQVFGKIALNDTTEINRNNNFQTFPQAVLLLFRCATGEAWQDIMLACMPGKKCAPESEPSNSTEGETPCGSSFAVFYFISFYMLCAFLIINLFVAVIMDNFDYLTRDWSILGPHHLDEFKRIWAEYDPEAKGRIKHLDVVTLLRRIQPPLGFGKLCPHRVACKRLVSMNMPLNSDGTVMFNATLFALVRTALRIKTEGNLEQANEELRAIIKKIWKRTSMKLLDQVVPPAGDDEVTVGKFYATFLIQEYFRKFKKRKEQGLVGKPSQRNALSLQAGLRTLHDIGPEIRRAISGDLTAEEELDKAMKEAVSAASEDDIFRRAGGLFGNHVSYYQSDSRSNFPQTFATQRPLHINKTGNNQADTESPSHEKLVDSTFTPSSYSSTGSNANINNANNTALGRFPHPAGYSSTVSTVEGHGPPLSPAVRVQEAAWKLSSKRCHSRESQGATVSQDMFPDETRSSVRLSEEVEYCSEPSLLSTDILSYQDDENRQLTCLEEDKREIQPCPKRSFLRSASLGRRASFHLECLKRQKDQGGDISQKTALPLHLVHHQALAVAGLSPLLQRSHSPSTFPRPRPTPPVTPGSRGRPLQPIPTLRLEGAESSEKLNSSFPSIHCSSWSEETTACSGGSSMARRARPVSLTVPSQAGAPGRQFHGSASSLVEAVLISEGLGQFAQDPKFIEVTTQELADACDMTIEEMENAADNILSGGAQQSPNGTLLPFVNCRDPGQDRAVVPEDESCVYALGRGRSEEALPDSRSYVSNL
Delta-type opioid receptor, sequence (P41143 whole entry): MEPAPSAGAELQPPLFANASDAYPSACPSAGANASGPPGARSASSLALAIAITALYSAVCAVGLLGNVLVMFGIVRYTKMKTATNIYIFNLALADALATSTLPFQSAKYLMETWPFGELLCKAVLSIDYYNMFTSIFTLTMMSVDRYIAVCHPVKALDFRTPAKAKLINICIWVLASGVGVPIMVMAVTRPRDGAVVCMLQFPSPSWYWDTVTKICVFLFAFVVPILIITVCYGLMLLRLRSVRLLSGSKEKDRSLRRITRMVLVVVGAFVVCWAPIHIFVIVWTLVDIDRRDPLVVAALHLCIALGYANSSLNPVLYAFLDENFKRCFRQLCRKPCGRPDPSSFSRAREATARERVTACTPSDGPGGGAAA
Sodium-dependent noradrenaline transporter, sequence (P23975 whole entry): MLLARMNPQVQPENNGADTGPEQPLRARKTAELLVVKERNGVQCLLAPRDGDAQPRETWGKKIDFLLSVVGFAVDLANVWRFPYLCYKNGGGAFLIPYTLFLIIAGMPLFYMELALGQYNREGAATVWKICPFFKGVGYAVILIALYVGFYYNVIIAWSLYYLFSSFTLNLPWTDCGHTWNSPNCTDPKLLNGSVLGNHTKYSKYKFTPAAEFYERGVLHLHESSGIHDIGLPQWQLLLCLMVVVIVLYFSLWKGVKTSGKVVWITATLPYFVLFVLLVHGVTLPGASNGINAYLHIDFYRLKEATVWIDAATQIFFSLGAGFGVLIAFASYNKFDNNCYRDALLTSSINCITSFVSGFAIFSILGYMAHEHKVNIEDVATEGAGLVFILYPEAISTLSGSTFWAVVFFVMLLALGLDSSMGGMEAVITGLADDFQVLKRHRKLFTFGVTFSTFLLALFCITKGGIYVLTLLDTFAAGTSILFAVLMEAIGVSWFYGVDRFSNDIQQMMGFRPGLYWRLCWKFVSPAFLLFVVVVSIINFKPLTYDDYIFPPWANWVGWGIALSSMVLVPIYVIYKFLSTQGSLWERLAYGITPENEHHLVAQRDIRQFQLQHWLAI
Growth hormone secretagogue receptor type 1, sequence (Q92847 whole entry): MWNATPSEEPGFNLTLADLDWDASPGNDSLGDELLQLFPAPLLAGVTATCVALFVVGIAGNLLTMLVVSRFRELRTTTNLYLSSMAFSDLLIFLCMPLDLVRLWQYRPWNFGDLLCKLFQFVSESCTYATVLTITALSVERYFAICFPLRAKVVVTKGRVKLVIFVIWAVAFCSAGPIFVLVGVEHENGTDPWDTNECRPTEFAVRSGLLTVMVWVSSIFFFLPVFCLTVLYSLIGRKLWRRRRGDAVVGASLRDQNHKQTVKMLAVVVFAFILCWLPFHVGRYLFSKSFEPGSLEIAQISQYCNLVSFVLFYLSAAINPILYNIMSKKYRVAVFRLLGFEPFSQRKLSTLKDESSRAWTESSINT

SMILES: c1ccc(C2(c3ccccc3)CC2C2=NCCN2)cc1 (centres undefined) [CIFENLINE]
AC50 (Acetylcholinesterase): > 30 µM
AC50 [1]: > 30 µM
AC50 [2]: > 30 µM
AC50 [3]: > 30 µM
AC50 (Androgen receptor): 22.6 µM
AC50 [4]: > 50 µM
AC50 (Histamine H3 receptor): > 30 µM
AC50 [5]: > 30 µM

SMILES: CCCCC[C@H](O)/C=C/[C@@H]1[C@@H](C/C=C\CCCC(=O)O)[C@@H](O)C[C@H]1O [DINOPROST]
AC50 (Thromboxane A2 receptor): 2.76 µM

AC50 [6]: > 10 µM
AC50 [7]: > 10 µM
AC50 [8]: > 10 µM
AC50 [9]: > 10 µM
AC50 [10]: > 10 µM
SMILES: CCc1cc(C(N)=S)ccn1 [ETHIONAMIDE]

SMILES: CC(C)Oc1ccc2c(=O)c(-c3ccccc3)coc2c1 [IPRIFLAVONE]
AC50 (Acetylcholinesterase): > 30 µM

SMILES: CSCC[C@H](NC(=O)[C@H](Cc1c[nH]c2ccccc12)NC(=O)CCNC(=O)OC(C)(C)C)C(=O)N[C@@H](CC(=O)O)C(=O)N[C@@H](Cc1ccccc1)C(N)=O [PENTAGASTRIN]
AC50 [9]: > 10 µM
AC50 [11]: > 10 µM
AC50 [12]: > 10 µM
AC50 [13]: > 10 µM
AC50 [10]: > 10 µM
AC50 [14]: > 30 µM
AC50 [15]: > 30 µM
AC50 [16]: > 10 µM
AC50 (Mu-type opioid receptor [17]): > 30 µM
AC50 [18]: > 10 µM
AC50 (Mu-type opioid receptor [19]): > 30 µM

SMILES: N=C(N)c1ccc(OCCCCCOc2ccc(C(=N)N)cc2)cc1 [PENTAMIDINE]
AC50 (Acetylcholinesterase): 7.28 µM

AC50 [20]: > 30 µM
AC50 [21]: > 30 µM
SMILES: O=C(O)Cc1cc(I)c(Oc2ccc(O)c(I)c2)c(I)c1 [TIRATRICOL]
